In PubChem BioAssay AID256 (DTP/NCI, 2004):
Where “and” joins values, the source holds several entries; their conditions need not be identical. Identical values can stand only once. Inconclusive results and toxic doses are left out. The calls were made as follows: active = survival T/C of 150% or more; inactive = T/C below 125% in these data.

System: CD2F1 mice, L1210 leukemia ip, survival T/C
Assay: NCI In Vivo Anticancer Drug Screen. Data for tumor model L1210 Leukemia (intraperitoneal) in CD2F1 (CDF1) mice
Conditions: higher = longer survival
Summary of the method: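 Vehicle-treated tumor-bearing mice served as controls (C) for compound-treated mice (T). Reported figure is T divided by C.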

[1] = endpoint: mean survival time, dose: 100.0 mg/kg/injection, schedule: Q01DX009 (ip), vehicle: saline
[2] = endpoint: mean survival time, dose: 200.0 mg/kg/injection, schedule: Q01DX009 (ip), vehicle: saline
[3] = endpoint: mean survival time, dose: 400.0 mg/kg/injection, schedule: Q01DX009 (ip), vehicle: saline
[4] = endpoint: mean survival time, dose: 100.0 mg/kg/injection, schedule: Q04DX003 (ip), vehicle: saline with Tween-80
[5] = endpoint: mean survival time, dose: 200.0 mg/kg/injection, schedule: Q04DX003 (ip), vehicle: saline with Tween-80
[6] = endpoint: mean survival time, dose: 400.0 mg/kg/injection, schedule: Q04DX003 (ip), vehicle: saline with Tween-80
[7] = endpoint: mean survival time, dose: 50.0 mg/kg/injection, schedule: Q01DX009 (ip), vehicle: Klucel (hydroxypropylcellulose) (HPC)
[8] = endpoint: mean survival time, dose: 100.0 mg/kg/injection, schedule: Q01DX009 (ip), vehicle: Klucel (hydroxypropylcellulose) (HPC)
[9] = endpoint: mean survival time, dose: 200.0 mg/kg/injection, schedule: Q01DX009 (ip), vehicle: Klucel (hydroxypropylcellulose) (HPC)
[10] = endpoint: mean survival time, dose: 100.0 mg/kg/injection, schedule: Q01DX001 (ip), vehicle: saline with Tween-80
[11] = endpoint: mean survival time, dose: 200.0 mg/kg/injection, schedule: Q01DX001 (ip), vehicle: saline with Tween-80
[12] = endpoint: mean survival time, dose: 400.0 mg/kg/injection, schedule: Q01DX001 (ip), vehicle: saline with Tween-80

Measured: T/C

O=[N+]([O-])C/C=C(/C=Nc1ccc(Cl)cc1)[N+](=O)[O-]
inactive: [1] 101 % of control | endpoint: mean survival time, dose: 100.0 mg/kg/injection, schedule: Q04DX003 (ip), vehicle: saline 105 % of control | [2] 102 % of control | endpoint: mean survival time, dose: 200.0 mg/kg/injection, schedule: Q04DX003 (ip), vehicle: saline 97 % of control | [3] 96 % of control | endpoint: mean survival time, dose: 400.0 mg/kg/injection, schedule: Q04DX003 (ip), vehicle: saline 97 % of control

COC(=O)C(C)NC(=O)OCc1ccccc1 (stereo not given)
inactive: [4] 96 % of control | [5] 98 % of control | [6] 101 % of control

COc1ccc(OC)c2c1CCC(O)(C#N)C2 (stereo not given)
inactive: endpoint: mean survival time, dose: 12.5 mg/kg/injection, schedule: Q01DX009 (ip), vehicle: water 98 % of control | endpoint: mean survival time, dose: 25.0 mg/kg/injection, schedule: Q01DX009 (ip), vehicle: water 89 % of control

COc1cc(Cl)c(CCBr)cc1OC
inactive: [7] 104 % of control | [8] 89 % of control | [9] 96 % of control

O=c1[nH]cc(Cc2cccc3ccccc23)c(=O)[nH]1
inactive: [10] 92 % of control | [11] 94 % of control | [12] 86 % of control

NC1=NCN(C2OC(CO)C(O)C2O)C(=O)N1 (stereo not given)
inactive: endpoint: mean survival time, dose: 1.56 mg/kg/injection, schedule: Q01DX009 (ip), vehicle: saline 96 % of control | endpoint: mean survival time, dose: 3.12 mg/kg/injection, schedule: Q01DX009 (ip), vehicle: saline 113 % of control and 120 % of control and 93 % of control | endpoint: mean survival time, dose: 3.13 mg/kg/injection, schedule: Q01DX009 (ip), vehicle: saline 113 % of control | endpoint: mean survival time, dose: 6.25 mg/kg/injection, schedule: Q01DX009 (ip), vehicle: saline 96 % of control | endpoint: mean survival time, dose: 12.5 mg/kg/injection, schedule: Q01DX009 (ip), vehicle: saline 89 % of control | endpoint: mean survival time, dose: 25.0 mg/kg/injection, schedule: Q01DX009 (ip), vehicle: saline 90 % of control and 100 % of control | endpoint: mean survival time, dose: 50.0 mg/kg/injection, schedule: Q01DX009 (ip), vehicle: saline 110 % of control | endpoint: mean survival time, dose: 50.0 mg/kg/injection, schedule: Q01DX009 (oral), vehicle: saline 96 % of control | [1] 95 % of control | endpoint: mean survival time, dose: 100.0 mg/kg/injection, schedule: Q01DX009 (oral), vehicle: saline 110 % of control | [2] 95 % of control | endpoint: mean survival time, dose: 200.0 mg/kg/injection, schedule: Q01DX009 (oral), vehicle: saline 119 % of control | [3] 124 % of control | endpoint: mean survival time, dose: 600.0 mg/kg/injection, schedule: Q01DX009 (ip), vehicle: saline 100 % of control | endpoint: mean survival time, dose: 800.0 mg/kg/injection, schedule: Q01DX009 (oral), vehicle: saline 118 % of control | endpoint: median survival time, dose: 1.56 mg/kg/injection, schedule: Q01DX009 (ip), vehicle: saline 110 % of control | endpoint: median survival time, dose: 32.0 mg/kg/injection, schedule: Q03HX008 (ip), vehicle: saline 124 % of control | endpoint: median survival time, dose: 64.0 mg/kg/injection, schedule: Q01DX001 (oral), vehicle: saline 98 % of control | endpoint: median survival time, dose: 64.0 mg/kg/injection, schedule: Q01DX009 (oral), vehicle: saline 100 % of control | endpoint: median survival time, dose: 64.0 mg/kg/injection, schedule: Q03HX008 (ip), vehicle: saline 124 % of control | endpoint: median survival time, dose: 128.0 mg/kg/injection, schedule: Q03HX024 (oral), vehicle: saline 113 % of control | endpoint: median survival time, dose: 128.0 mg/kg/injection, schedule: Q04DX003 (oral), vehicle: saline 98 % of control | endpoint: median survival time, dose: 256.0 mg/kg/injection, schedule: Q01DX001 (ip), vehicle: saline 124 % of control | endpoint: median survival time, dose: 256.0 mg/kg/injection, schedule: Q01DX001 (oral), vehicle: saline 100 % of control | endpoint: median survival time, dose: 256.0 mg/kg/injection, schedule: Q03HX008 (oral), vehicle: saline 118 % of control | endpoint: median survival time, dose: 256.0 mg/kg/injection, schedule: Q04DX003 (oral), vehicle: saline 100 % of control | endpoint: median survival time, dose: 512.0 mg/kg/injection, schedule: Q03HX008 (oral), vehicle: saline 124 % of control | endpoint: median survival time, dose: 512.0 mg/kg/injection, schedule: Q04DX003 (oral), vehicle: saline 113 % of control | endpoint: median survival time, dose: 1024.0 mg/kg/injection, schedule: Q01DX001 (oral), vehicle: saline 124 % of control | endpoint: median survival time, dose: 1024.0 mg/kg/injection, schedule: Q01DX009 (ip), vehicle: saline 92 % of control and 98 % of control | endpoint: median survival time, dose: 1024.0 mg/kg/injection, schedule: Q01DX009 (sc), vehicle: saline 91 % of control

C=CCSc1ccccn1
inactive: endpoint: mean survival time, dose: 50.0 mg/kg/injection, schedule: Q01DX001 (ip), vehicle: carboxymethylcellulose (CMC) 94 % of control | endpoint: mean survival time, dose: 100.0 mg/kg/injection, schedule: Q01DX001 (ip), vehicle: carboxymethylcellulose (CMC) 86 % of control | endpoint: mean survival time, dose: 200.0 mg/kg/injection, schedule: Q01DX001 (ip), vehicle: carboxymethylcellulose (CMC) 88 % of control | endpoint: mean survival time, dose: 400.0 mg/kg/injection, schedule: Q01DX001 (ip), vehicle: carboxymethylcellulose (CMC) 94 % of control

N#Cc1c(F)c(F)c(NN)c(F)c1F
inactive: [4] 93 % of control | [5] 89 % of control

O=c1[nH]cnc2[nH]ccc12
inactive: endpoint: mean survival time, dose: 75.0 mg/kg/injection, schedule: Q01DX001 (ip), vehicle: saline 110 % of control | endpoint: mean survival time, dose: 150.0 mg/kg/injection, schedule: Q01DX001 (ip), vehicle: saline 96 % of control

CCOC(=O)C(CCC(O)C#N)(NC(C)=O)C(=O)OCC (stereo not given)
inactive: endpoint: mean survival time, dose: 25.0 mg/kg/injection, schedule: Q04DX002 (ip), vehicle: saline with Tween-80 101 % of control | endpoint: mean survival time, dose: 50.0 mg/kg/injection, schedule: Q04DX002 (ip), vehicle: saline with Tween-80 96 % of control | endpoint: mean survival time, dose: 100.0 mg/kg/injection, schedule: Q04DX002 (ip), vehicle: saline with Tween-80 100 % of control

Cc1ccc(S(=O)(=O)NCCC(=O)Nc2ccccc2)cc1
inactive: endpoint: mean survival time, dose: 50.0 mg/kg/injection, schedule: Q01DX009 (ip), vehicle: water 86 % of control | endpoint: mean survival time, dose: 100.0 mg/kg/injection, schedule: Q01DX009 (ip), vehicle: water 86 % of control | endpoint: mean survival time, dose: 200.0 mg/kg/injection, schedule: Q01DX009 (ip), vehicle: water 93 % of control

OCCN=Cc1ccc(OCc2ccccc2)c(OCc2ccccc2)c1
inactive: endpoint: median survival time, dose: 50.0 mg/kg/injection, schedule: Q04DX002 (ip), vehicle: saline with Tween-80 100 % of control | endpoint: median survival time, dose: 100.0 mg/kg/injection, schedule: Q04DX002 (ip), vehicle: saline with Tween-80 111 % of control | endpoint: median survival time, dose: 200.0 mg/kg/injection, schedule: Q04DX002 (ip), vehicle: saline with Tween-80 88 % of control | endpoint: median survival time, dose: 400.0 mg/kg/injection, schedule: Q04DX002 (ip), vehicle: saline with Tween-80 100 % of control

CC([NH-])CC(C)[NH-].[I][Pt+2][I] (stereo not given)
inactive: endpoint: mean survival time, dose: 6.25 mg/kg/injection, schedule: Q04DX003 (ip), vehicle: saline with Tween-80 113 % of control | endpoint: mean survival time, dose: 12.5 mg/kg/injection, schedule: Q04DX003 (ip), vehicle: saline with Tween-80 121 % of control

COc1ccc(C(=S)c2ccc(OC)cc2)cc1
inactive: [10] 101 % of control | [11] 96 % of control | [12] 101 % of control

O=C(Nc1ccc(F)c(Cl)c1)N(CCO)C1CCCCC1
inactive: [7] 91 % of control | [8] 102 % of control | [9] 95 % of control

O=C(NC(O)C(Cl)(Cl)Cl)c1ccccc1 (stereo not given)
inactive: endpoint: mean survival time, dose: 100.0 mg/kg/injection, schedule: Q01DX009 (ip), vehicle: saline with Tween-80 94 % of control | [4] 107 % of control | endpoint: mean survival time, dose: 200.0 mg/kg/injection, schedule: Q01DX009 (ip), vehicle: saline with Tween-80 89 % of control | [5] 107 % of control | endpoint: mean survival time, dose: 400.0 mg/kg/injection, schedule: Q01DX009 (ip), vehicle: saline with Tween-80 91 % of control | [6] 107 % of control
